Test: Antioxidant test, DPPH radical scavenging (Example 9)
Assay type: biochemical
Description: The antioxidant activity of oligoferulates prepared as described in example 1, ferulic acid (W518301, Sigma-Aldrich), gallic acid (27645, Sigma-Aldrich) and ascorbic acid (A0278, Sigma-Aldrich) was determined using a method based on the scavenging of the stable radical 2,2-diphenyl-1-picrylhydrazyl (DPPH) (Brand Williams et al, Food Sci Technol-Lebens Wissens Technol. 1995; 28:25-30) and the results expressed as IC50 (concentration of antioxidant which reduces the free radical DPPH⋅ about 50%). This method is frequently used to predict the antioxidant activities of different molecules.

Structure (SMILES): COc1cc(/C=C/C(=O)O)ccc1O [ferulic acid]
- antioxidant activity IC50 (concentration which reduces the free radical DPPH about 50%): 25 µg/mL

Structure (SMILES): O=C1O[C@H]([C@@H](O)CO)C(O)=C1O [ascorbic acid]
- antioxidant activity IC50 (concentration which reduces the free radical DPPH about 50%): 5 µg/mL

Structure (SMILES): O=C(O)c1cc(O)c(O)c(O)c1 [gallic acid]
- antioxidant activity IC50 (concentration which reduces the free radical DPPH about 50%): 2 µg/mL
